Read-outs that look alike come from different tables or passages of the source.
Assays:
[1] = target: T1, Recombinant human HDAC3/SMRT heterodimer (Homo sapiens, UniProt O15379); test: Human HDAC enzyme inhibitor Fluor-de-Lys assay, HDAC3/SMRT; assay type: biochemical
T1 construct: FLAG (C); made in house

KARN cells (Jurkat 2C4) = test: cells; assay type: cell-based
In short: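 Jurkat 2C4 (KARN) cells dosed with test compounds up to 40 μM final, 0.4% DMSO, overnight at 5% CO2; luciferase read by Steady-Glo luminescence after 10 min at room temperature. DMSO set as 0% and 2 μM SAHA as 100% induction; 4-parameter fit of percent activation.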

Recombinant human HDAC8 = target: T2, Recombinant human HDAC8 (Homo sapiens, UniProt Q9BY41); test: Human HDAC enzyme inhibitor Fluor-de-Lys assay, HDAC8; assay type: biochemical
T2 construct: purchased Enzo Life Sciences BML-SE145-0100
T2 sequence (Q9BY41 1-377): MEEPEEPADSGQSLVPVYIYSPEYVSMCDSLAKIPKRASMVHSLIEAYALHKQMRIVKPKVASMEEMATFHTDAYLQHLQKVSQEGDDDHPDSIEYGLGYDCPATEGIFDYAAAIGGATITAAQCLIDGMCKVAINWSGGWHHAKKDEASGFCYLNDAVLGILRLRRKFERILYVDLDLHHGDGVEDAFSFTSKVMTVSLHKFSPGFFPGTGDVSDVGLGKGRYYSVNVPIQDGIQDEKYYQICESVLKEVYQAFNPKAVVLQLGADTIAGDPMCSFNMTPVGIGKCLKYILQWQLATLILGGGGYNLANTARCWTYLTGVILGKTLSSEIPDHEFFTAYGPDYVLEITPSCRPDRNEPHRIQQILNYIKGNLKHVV

[2] = read-out: Karn EC50 (nM) 0.1% NHS, 0.1% normal human serum
[3] = read-out: Karn EC50 (nM) 5% NHS, 5% normal human serum
[4] = Homo sapiens, Jurkat, read-out: Karn EC50 (nM) 0.1% NHS, 0.1% normal human serum
[5] = Homo sapiens, Jurkat, read-out: Karn EC50 (nM) 5% NHS, 5% normal human serum

T1 sequence (O15379 whole entry): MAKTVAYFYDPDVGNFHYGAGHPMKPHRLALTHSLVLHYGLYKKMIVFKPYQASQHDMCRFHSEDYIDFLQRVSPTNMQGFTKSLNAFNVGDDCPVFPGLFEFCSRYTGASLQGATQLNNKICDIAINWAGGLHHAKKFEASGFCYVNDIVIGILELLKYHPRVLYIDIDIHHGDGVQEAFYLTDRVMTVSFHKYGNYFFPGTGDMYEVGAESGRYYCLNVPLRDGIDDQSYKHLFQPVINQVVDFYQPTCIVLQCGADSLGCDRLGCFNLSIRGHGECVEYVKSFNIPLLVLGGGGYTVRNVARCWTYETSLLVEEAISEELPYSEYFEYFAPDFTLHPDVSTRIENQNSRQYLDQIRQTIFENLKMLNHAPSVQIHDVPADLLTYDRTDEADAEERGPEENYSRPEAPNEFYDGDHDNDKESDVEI
T1 sequence (Q9Y618 1-899 partner limits assumed): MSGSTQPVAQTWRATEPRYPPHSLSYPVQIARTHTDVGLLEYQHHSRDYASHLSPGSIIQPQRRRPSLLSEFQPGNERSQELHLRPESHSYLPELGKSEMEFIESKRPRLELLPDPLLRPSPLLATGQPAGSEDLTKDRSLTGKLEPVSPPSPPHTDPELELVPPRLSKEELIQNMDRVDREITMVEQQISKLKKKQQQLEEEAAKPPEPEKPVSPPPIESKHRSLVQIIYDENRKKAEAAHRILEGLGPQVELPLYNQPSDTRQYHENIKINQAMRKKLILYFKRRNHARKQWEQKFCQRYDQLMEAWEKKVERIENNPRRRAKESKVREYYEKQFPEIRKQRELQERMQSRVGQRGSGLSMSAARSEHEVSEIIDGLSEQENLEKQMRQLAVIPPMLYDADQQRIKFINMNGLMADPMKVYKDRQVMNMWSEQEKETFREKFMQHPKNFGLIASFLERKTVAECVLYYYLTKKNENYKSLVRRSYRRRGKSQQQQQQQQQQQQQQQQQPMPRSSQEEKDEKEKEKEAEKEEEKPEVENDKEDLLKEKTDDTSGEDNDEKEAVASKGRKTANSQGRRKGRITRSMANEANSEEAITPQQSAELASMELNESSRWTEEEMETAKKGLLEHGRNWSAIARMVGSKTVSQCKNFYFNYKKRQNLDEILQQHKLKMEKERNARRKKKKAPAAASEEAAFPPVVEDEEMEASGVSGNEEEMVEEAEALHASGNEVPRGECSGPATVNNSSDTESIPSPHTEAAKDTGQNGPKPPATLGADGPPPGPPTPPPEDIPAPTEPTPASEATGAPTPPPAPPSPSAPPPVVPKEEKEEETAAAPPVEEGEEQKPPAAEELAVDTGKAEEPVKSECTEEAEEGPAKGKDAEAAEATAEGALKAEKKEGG

SMILES	IC50 [1]	EC50 (KARN cells (Jurkat 2C4); [2])	EC50 (KARN cells (Jurkat 2C4); [3])	IC50 (Recombinant human HDAC8)	EC50 (KARN cells (Jurkat 2C4); [4])	EC50 (KARN cells (Jurkat 2C4); [5])
CCC(=O)CCCCC[C@H](NC(=O)C1CC12CCN(C)C(C)(C)C2)c1ncc(-c2ccc3nc(C)ccc3c2)[nH]1 (single isomer, unassigned) [Compound 130]	2.27 nM	503 nM	598 nM	6000 nM	–	–
CCC(=O)CCCCC[C@H](NC(=O)C1CC12CCN(C)C(C)(C)C2)c1ncc(-c2ccc3nc(C)ccc3c2)[nH]1 (single isomer, unassigned) [Compound 131]	0.57 nM	126 nM	128 nM	2780 nM	–	–
CCC(=O)CCCCC[C@H](NC(=O)C1CC12CCN(C)C(C)(C)C2)c1ncc(-c2ccc3nc(C)ccc3c2)[nH]1 (single isomer, unassigned) [Compound 132]	< 1.5 nM	169 nM	281 nM	8060 nM	–	–
CCC(=O)CCCCC[C@H](NC(=O)C1CC12CCN(C)C(C)(C)C2)c1ncc(-c2ccc3nc(C)ccc3c2)[nH]1 (single isomer, unassigned) [Compound 133]	< 1.5 nM	89 nM	81 nM	2060 nM	–	–
CCC(=O)CCCCC[C@H](NC(=O)[C@@]1(C)CC12CCN(C(C)C)CC2)c1ncc(-c2ccc3nc(C)ccc3c2)[nH]1 (single isomer, unassigned) [Compound 151, (1S or 1R)-1-methyl-6-(1-methylethyl)-N-{(1S)-1-[5-(2-methylquinolin-6-yl)-1H-imidazol-2-yl]-7-oxononyl}-6-azaspiro[2.5]octane-1-carboxamide]	3.94 nM	–	–	3180 nM	583 nM	864 nM
CCC(=O)CCCCC[C@H](NC(=O)C1(C)CC12CCN(C(C)C)CC2)c1ncc(-c2ccc3nc(C)ccc3c2)[nH]1 (single isomer, unassigned) [Compound 152, (1S or 1R)-1-methyl-6-(1-methylethyl)-N-{(1S)-1-[5-(2-methylquinolin-6-yl)-1H-imidazol-2-yl]-7-oxononyl}-6-azaspiro[2.5]octane-1-carboxamide]	0.85 nM	–	–	5060 nM	128 nM	96 nM
CCC(=O)CCCCC[C@H](NC(=O)C1CC12CC1CCC(C2)N1C)c1ncc(-c2ccc3ncccc3c2)[nH]1 (single isomer, unassigned) [Compound 166]	0.32 nM	–	–	5660 nM	469 nM	591 nM
CCC(=O)CCCCC[C@H](NC(=O)C1CN(C)C1)c1[nH]c(-c2ccc(F)cc2)nc1Br [Compound 65, N-{(1S)-1-[4-bromo-2-(4-fluorophenyl)-1H-imidazol-5-yl]-7-oxononyl}-1-methylazetidine-3-carboxamide]	20.6 nM	–	–	40000 nM	2190 nM	4390 nM
CCC(=O)CCCCC[C@H](NC(=O)[C@H]1CC12CCN(C)CC2)c1ncc(-c2ccc3nc(N(C)C)ccc3c2)[nH]1 [Compound 66, (1S)—N-[(1S)-1-{5-[2-(dimethylamino)quinolin-6-yl]-1H-imidazol-2-yl}-7-oxononyl]-6-methyl-6-azaspiro[2.5]octane-1-carboxamide]	167 nM	–	–	> 1500 nM	27 nM	14 nM
CCC(=O)CCCCC[C@H](NC(=O)[C@H]1CC12CCN(C)CC2)c1ncc(-c2cnc3cccnc3c2)[nH]1 [Compound 67]	–	–	–	2590 nM	6480 nM	6350 nM
CN1CCC2(CC1)C[C@@H]2C(=O)N[C@@H](CCCCCC(=O)CC(F)(F)F)c1ncc(-c2ccc(F)cc2)[nH]1 [Compound 68]	8.59 nM	–	–	4410 nM	> 40000 nM	–
CCC(=O)CCCCC[C@H](NC(=O)C1CN(C)C1)c1ncc(-c2ccc3c(c2)C2CCC3C2)[nH]1 (stereo partly drawn) [Compound 73, 1-methyl-N-{(1S)-7-oxo-1-[5-(1,2,3,4-tetrahydro-1,4-methanonaphthalen-6-yl)-1H-imidazol-2-yl]nonyl}azetidine-3-carboxamide]	9.57 nM	–	–	3070 nM	740 nM	1450 nM
CCC(=O)CCCCC[C@H](NC(=O)[C@H]1CC12CCN(C)CC2)c1ncc(-c2ccc3c(c2)C2CCC3C2)[nH]1 (some centres unmarked) [Compound 74]	3.74 nM	–	–	4530 nM	351 nM	376 nM
CCC(=O)CCCCC[C@H](NC(=O)[C@H]1CC12CCN(C)CC2)c1nc(F)c(-c2cc3ccccc3nc2OC)[nH]1 [Compound 75]	2.59 nM	–	–	27300 nM	275 nM	801 nM
CCC(=O)CCCCC[C@H](NC(=O)[C@H]1CC12CCN(C)CC2)c1[nH]c(-c2ccc(F)cc2)nc1C#N [Compound 76]	2.88 nM	–	–	16800 nM	233 nM	409 nM
CCC(=O)CCCCC[C@H](NC(=O)[C@H]1CC12CCN(C)CC2)c1ncc(-c2cc3ccccc3nc2OC)o1 [Compound 77]	–	194 nM	311 nM	21700 nM	–	–

SMILES	IC50 [1]	EC50 (KARN cells (Jurkat 2C4); [2])	EC50 (KARN cells (Jurkat 2C4); [3])	IC50 (Recombinant human HDAC8)	EC50 (KARN cells (Jurkat 2C4); [4])	EC50 (KARN cells (Jurkat 2C4); [5])
CCC(=O)CCCCC[C@H](NC(=O)[C@H]1CC12CCN(CC)CC2)c1ncc(-c2ccc3nc(C4CC4)ccc3c2)[nH]1 [Compound 101]	< 1.5 nM	–	–	6650 nM	41 nM	36 nM
CCC(=O)CCCCC[C@H](NC(=O)[C@H]1CC12CCN(CC1CC1)CC2)c1ncc(-c2ccc3nc(C4CC4)ccc3c2)[nH]1 [Compound 104]	< 1.5 nM	–	–	5020 nM	33 nM	28 nM
CCC(=O)CCCCC[C@H](NC(=O)C1=NOC2(CCN(C)CC2)C1)c1ncc(-c2cc3ccccc3nc2OC)[nH]1 [Compound 105]	–	–	–	2880 nM	126 nM	942 nM
CCC(=O)CCCCC[C@H](NC(=O)C1=NOC2(CCN(C(C)C)CC2)C1)c1ncc(-c2cc3ccccc3nc2OC)[nH]1 [Compound 106, N-{(1S)-1-[5-(2-methoxyquinolin-3-yl)-1H-imidazol-2-yl]-7-oxononyl}-8-(1-methylethyl)-1-oxa-2,8-diazaspiro[4.5]dec-2-ene-3-carboxamide]	< 1.5 nM	–	–	2780 nM	143 nM	1070 nM
CCC(=O)CCCCC[C@H](NC(=O)[C@H]1CC12CCN(C)CC2)c1ncc(-c2ccc3c(ccc(=O)n3C)c2)o1 [Compound 109]	2.98 nM	–	–	> 15000 nM	706 nM	579 nM
CCC(=O)CCCCC[C@H](NC(=O)[C@H]1CC12CCN(C)CC2)c1ncc(-c2ccc3cnc(OC)cc3c2)[nH]1 [Compound 113]	1.42 nM	–	–	2180 nM	58 nM	107 nM
CCC(=O)CCCCC[C@H](NC(=O)[C@H]1CC12CCN(CC)CC2)c1ncc(-c2ccc3nc(C4CC4)ccc3c2)o1 [Compound 114]	1.04 nM	–	–	27000 nM	207 nM	220 nM
CCC(=O)CCCCC[C@H](NC(=O)[C@H]1CC12CCN(CC1CC1)CC2)c1ncc(-c2ccc3nc(C4CC4)ccc3c2)o1 [Compound 115]	< 1.5 nM	–	–	15400 nM	239 nM	209 nM
CCC(=O)CCCCC[C@H](NC(=O)[C@H]1CC12CCN(C(C)C)CC2)c1ncc(-c2ccc3nc(C4CC4)ccc3c2)o1 [Compound 116]	3.88 nM	–	–	> 15000 nM	630 nM	617 nM
CCC(=O)CCCCC[C@H](NC(=O)[C@H]1CC12CCN(C)CC2)c1ncc(-c2ccc3nc(C4CC4)ccc3c2)o1 [Compound 121]	1.16 nM	–	–	15300 nM	232 nM	242 nM
CCC(=O)CCCCC[C@H](NC(=O)[C@H]1CC[C@]2(CC1)OC(=O)c1ncccc12)c1ncc(-c2ccc3nc(C4CC4)ccc3c2)o1 [Compound 122]	20.5 nM	–	–	29300 nM	1130 nM	2840 nM
CCC(=O)CCCCC[C@H](NC(=O)[C@H]1CC[C@]2(CC1)OC(=O)c1cccnc12)c1ncc(-c2ccc3nc(C4CC4)ccc3c2)o1 [Compound 123]	7.59 nM	–	–	> 15000 nM	868 nM	3900 nM
CCC(=O)CCCCC[C@H](NC(=O)[C@H]1CC12CCN(C)CC2)c1ncc(-c2cc3ccccc3nc2OC)o1 [Compound 125]	–	–	–	23400 nM	154 nM	256 nM
CCC(=O)CCCCC[C@H](NC(=O)[C@H]1CC12CCN(CC)CC2)c1ncc(-c2ccc3c(=O)n(C(C)C)ccc3c2)[nH]1 [Compound 126]	0.19 nM	–	–	6480 nM	53 nM	33 nM
CCC(=O)CCCCC[C@H](NC(=O)[C@H]1CC12CCN(CC)CC2)c1ncc(-c2ccc(-c3cnc(C4CC4)cn3)cc2)o1 [Compound 129, (1S)—N-[(1S)-1-{5-[4-(5-cyclopropylpyrazin-2-yl)phenyl]-1,3-oxazol-2-yl}-7-oxononyl]-6-ethyl-6-azaspiro[2.5]octane-1-carboxamide]	14.2 nM	–	–	7720 nM	828 nM	1240 nM
CCC(=O)CCCCC[C@H](NC(=O)[C@H]1CC12CCN(CC1CC1)CC2)c1ncc(-c2cc3ccc(=O)n(C)c3cc2OC)o1 [Compound 199]	–	–	–	300 nM	62 nM	83 nM

Reference: patent publication US12590099B2, “Inhibitors of histone deacetylase useful for the treatment or prevention of HIV infection” (Merck Sharp & Dohme LLC, priority 2018, dated 2026)
